The results in this text go back to PubChem BioAssay AID493002 (Sanford-Burnham Center for Chemical Genomics, 2010).

The assay deals with S. cerevisiae tim23-1 mutant growth, luminescence. Kind of assay: potency against tim23-1 yeast growth – luminescence, uHTS hits, dose response (AID 493002).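 Note: yeast grown roughly 22 hours at 25 °C before the luminescence read.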
As to `O=C(c1ccccc1)N1N=C(c2cccs2)CC1c1ccccc1O` (stereo not drawn), the IC50 – broadly, the concentration needed to halve the response being measured – was 22.8 µM.
As for `COc1ccc(C(=O)c2sc(Nc3ccccc3F)nc2N)cc1`, the IC50 is 8.51 µM.
The figure for `CCOC(=O)/C(=C/c1ccc(OC(=O)c2ccncc2)cc1)C(C)=O` is 11 µM.
Under `Cc1cc(C(=O)CCl)c(C)n1CCc1ccc(Cl)cc1` stands 3.7 µM; under `COc1ccccc1C(=O)Nc1nnc(-c2ccc3c(c2)CCCC3)o1`, 13.8 µM.
The figure for `COC(=O)c1c(-c2ccc(S(C)(=O)=O)cc2)sc2ccc(OC)cc12` is 12 µM.
Consider `O=C(Nc1oc2ccc(Cl)cc2c(=O)c1-c1ccc(F)cc1)c1ccco1`, for which the IC50 is 17.1 µM.
Under `Cc1cccc(CN2C(=O)/C(=C\c3ccc(C(=O)NCCCN4CCN(C)CC4)cc3)Oc3ccccc32)c1` stands 17.5 µM; under `c1ccc(-c2ncc(-c3ccn[nH]3)s2)cc1`, 5.97 µM; under `O=C(CSc1cccc[n+]1[O-])Nc1ccccc1Oc1ccccc1`, 3.98 µM.
With `CC1=CC(C)(C)N(C(=O)c2ccc(F)cc2)c2cc3c(cc21)OCO3`, the half-maximal inhibitory concentration (IC50) was 14.3 µM.
The figure for `COc1cc(/C=C/C(=O)OCC(=O)c2ccc(OC(F)F)cc2)ccc1O` is 14.6 µM.
The figure for `COc1ccccc1-c1cc(C(=O)N/N=C/c2ccc(C)s2)c2ccccc2n1` is 18.8 µM.
The figure for `CCn1ncc([N+](=O)[O-])c1C(=O)Nc1nc2cccc(C)c2s1` is 17.7 µM; for `O=c1oc(Cl)c(Cl)c2ccccc12` it is 3.83 µM; for `CC(C)(C)c1ccc(Oc2ccc(N)cc2)cc1` it is 4.63 µM.
Regarding `COc1ccc(NC(=O)C#Cc2ccccc2)cc1`, the IC50 was 6.06 µM.
For the compound `Cc1cc(C(=O)COC(=O)c2ccc([N+](=O)[O-])o2)c(C)n1CC1CCCO1` (stereo not drawn), the IC50 is 10.1 µM.
Consider `O=C(N/N=C/c1ccc(Br)s1)c1cccs1`, for which the IC50 is 9.05 µM.
With `CCN(CC)c1ccc(C(=O)N/N=C/c2ccccc2OC(F)F)cc1`, the IC50 was 15.1 µM.
As for `Cc1ccc(-c2nnc(N3CCN(c4ccccn4)CC3)c3ccccc23)cc1`, the IC50 is 7.64 µM.
In the case of `CCOC(=O)c1cnc(-n2nc(C)cc2C)nc1NCCc1ccccc1`, the IC50 was 9.75 µM.
The figure for `Cc1ccnc(NC(=O)c2ccc3c(c2)C(=O)N(CC(C)C)C3=O)c1` is 13 µM.
Under `CCOC(=O)c1c(-c2ccccc2)oc2ccc(O)cc12` stands 7.92 µM; under `Oc1ccc(/C=N/Nc2cccc(Cl)n2)c(O)c1`, 10.6 µM.
The figure for `Cc1ccc(NC(=O)c2nc(S(=O)(=O)Cc3ccccc3C)ncc2Cl)cc1C` is 3.72 µM; for `Brc1cccc(-c2n[nH]c(-c3ccccc3)n2)c1` it is 11.5 µM.
`CC(C)Oc1cc(O)c2c(=O)c(-c3ccc(O)cc3)coc2c1`: the IC50 was 7.38 µM.
As for `COc1ccc2c(c1)sc1nc(-c3ccccc3)cn12`, the IC50 is 6.68 µM.
Regarding `Cc1nn(CC(=O)Nc2nc3ccccc3s2)c(C)c1[N+](=O)[O-]`, the IC50 is 8.41 µM.
On to `COc1ccc(S(=O)(=O)NCc2ccc(C)cc2)cc1`, for which the IC50 was 20.5 µM.
Under `Cc1nc2ccc(C(C(F)(F)F)(C(F)(F)F)C(F)(F)F)cc2[nH]1` stands 5.02 µM; under `Cc1ccc(Nc2ccc([N+](=O)[O-])nc2[N+](=O)[O-])cc1`, 44.3 µM; under `CC(C)(C)c1ccc(OCC(=O)NCc2ccco2)c(Br)c1`, 5.94 µM.
Under `Oc1c(Cl)cc(Cl)cc1CNc1nccs1` stands 15.3 µM; under `O=C(COc1ccccc1)N/N=C/c1ccc([N+](=O)[O-])o1`, 6.56 µM.
The figure for `COc1cc(OC)cc(C(=O)Nc2ccc(Nc3ccccc3)cc2)c1` is 9.92 µM; for `Cc1cccc(C(=O)Oc2cccc3c(O)cccc23)c1` it is 8.32 µM; for `O=C(Nc1ccc(F)c(Cl)c1)c1ccccc1` it is 11.5 µM.
With `O=C(Nc1ccc2nc(-c3ccc(Br)o3)[nH]c2c1)c1cccs1`, the concentration for half-maximal inhibition (IC50) is 1.35 µM.
Under `O=C(NCCCc1ccccc1)c1c(O)nc2sccn2c1=O` stands 4.63 µM; under `Cc1ccc(NC(=O)c2ccc3c(c2)OCCO3)cc1C`, 13 µM.
Under `Cc1ccc2[nH]cc(C(=O)CCl)c2c1` stands 6.02 µM; under `Cc1ccc(SCC(=O)OCn2nnc3ccccc3c2=O)cc1C`, 9.99 µM; under `CC(=O)Nc1ncnc2c1c(-c1ccc(Cl)cc1)nn2C(C)(C)C`, 10 µM.
For the compound `Cc1ccc2nc(N3C(=O)CNC3=S)sc2c1`, the IC50 was 3.73 µM.
In the case of `O=C(Nc1nc2c(F)cccc2s1)c1ccco1`, the IC50 was 16.7 µM.
Under `c1ccc(-c2cc3ccccc3cn2)cc1` stands 8.34 µM; under `Cn1c(C(=O)Nc2ccc3c(c2)OCCO3)cc2sccc21`, 12.1 µM; under `O=C(Nc1ccc(F)c(Cl)c1)C1CC2CCC1C2` (stereo not drawn), 21.6 µM.
With `Cc1ccc(NC(=O)c2ccc(Cl)c(NC(=O)c3cccs3)c2)cc1`, the half-inhibitory concentration (IC50) is 14.5 µM.
Consider `Nc1ccc2nc(SCc3cccc(F)c3)sc2c1`, for which the IC50 is 13.9 µM.
The figure for `CN(C(=O)c1ccco1)c1nnc(C23CC4CC(CC(C4)C2)C3)s1` is 20.8 µM; for `O=C(Nc1cccc(Br)c1)C1CCCC1` it is 7.64 µM.
Regarding `COc1ccc2c(C(=O)CCl)c[nH]c2c1`, the IC50 was 22.5 µM.
The figure for `O=C(N/N=C/C(Br)=C/c1ccccc1)c1cccs1` is 6.9 µM; for `CCN(CC)c1ccc(C(=O)Nc2cccc(F)c2)cc1` it is 5.19 µM; for `O=C(N/N=C/c1ccc([N+](=O)[O-])s1)c1ccncc1` it is 4.88 µM.
`CCC(C)C(=O)Nc1nc2ccc(OC)cc2s1` (stereo not drawn): the IC50 was 18.1 µM.
Under `CSc1nnc(C(C)(C)C)c(=O)n1/N=C/c1ccccc1` stands 13.6 µM; under `O=c1c2ccccc2nc2c3ccccc3cnn12`, 15 µM.
Consider `c1ccc(-n2nc3c(ccc4cnnc43)[nH]2)cc1`, for which the IC50 is 24.5 µM.
For the compound `Cc1ccc(Nc2nc(Cl)c(C=O)s2)cc1Cl`, the IC50 is 5.76 µM.
In the case of `COC(=O)c1ccc(NC(=O)c2nc(S(=O)(=O)Cc3cccc(C)c3)ncc2Cl)cc1`, the IC50 is 1.09 µM.
`O=C(COC(=O)CC1CCCC1)Nc1ccc(Cl)cc1`: the IC50 is 13.2 µM.
The figure for `Cc1ccc2nc(N3CCN(C=O)CC3)nc(-c3ccccc3)c2c1` is 11.9 µM; for `Cn1c(-c2sc3ccccc3c2Cl)n[nH]c1=S` it is 7.61 µM; for `Cn1c(C=O)c(C#Cc2ccccc2)c2ccccc21` it is 6.21 µM.
In the case of `CCOC(=O)c1cccc(NC(=O)c2cc3ccccc3o2)c1`, the IC50 was 14.3 µM.
As to `Cc1cccc(C)c1N1C(=O)CN(Cc2ccccc2)C1=S`, the IC50 was 28.1 µM.
Take `O=C(N/N=C/c1coc2ccc(Cl)cc2c1=O)c1cc(O)cc(O)c1`: the IC50 was 5.83 µM.
Turning to `CCc1sc(C(=O)Nc2nccs2)cc1C`, the IC50 was 16 µM.
With `O=C(CSc1nnnn1Cc1ccccc1)c1ccc(F)cc1`, the IC50 is 20 µM.
The figure for `COc1cc2c3c(c1)C(C)CC(C)(C)N3C(=O)C2=O` (stereo not drawn) is 27.2 µM; for `CN1C(=O)/C(=C\c2ccco2)N=C1c1ccc(Cl)cc1Cl` it is 12.8 µM; for `COc1cccc(C2=NN(C(=O)c3ccco3)C(c3ccco3)C2)c1` (stereo not drawn) it is 20.4 µM.
With `Cc1nc2ccccc2c(=O)n1/N=C/c1cc(Br)ccc1O`, the IC50 was 6.9 µM.
The figure for `Cc1csc2nc(O)c(C(=O)NC3CCCCC3)c(=O)n12` is 8.51 µM.
As for `CCCN1C(=O)C(=O)c2cc(Cl)ccc21`, the IC50 was 19.1 µM.
In the case of `CC(C(Sc1ccccc1N)c1ccccc1)[N+](=O)[O-]` (stereo not drawn), the IC50 was 3.92 µM.
The figure for `COc1ccc(C(C[N+](=O)[O-])c2c(-c3ccccc3)cc3ccccn23)cc1` (stereo not drawn) is 8.82 µM.
Turning to `O=c1cc(C(Cl)(Cl)Cl)oc2c1ccc1ccccc12`, the IC50 was 2.2 µM.
As to `O=C(/C=C/c1ccccc1)NCCc1c[nH]c2ccccc12`, the IC50 was 15 µM.
As to `Oc1ccc(Br)cc1/C=N/Nc1ccccn1`, the IC50 was 6.87 µM.
The figure for `O=Cc1ccccc1OCc1ccc2c(c1)OCO2` is 6.59 µM; for `O=C(Nc1ccc(C(=O)N2CCCc3ccccc32)cc1)c1cccs1` it is 7.75 µM.
Under `COc1ccc(C(C[N+](=O)[O-])c2c(-c3ccccc3)cc3ccccn23)cc1OC` (stereo not drawn) stands 12.7 µM.
In the case of `COc1cccc2sc3cc(NCc4ccc5c(c4)OCO5)ccc3c(=O)c12`, the IC50 was 12.3 µM.
Under `Oc1ccccc1-c1cc(-c2ccccc2)n[nH]1` stands 15.8 µM; under `CCn1c(N2CCN(S(=O)(=O)c3ccc(OC)cc3)CC2)nc2ccccc21`, 8.88 µM.
The figure for `O=Cc1cccnc1SCc1ccccc1` is 12.6 µM.
Under `Nc1cccc(-c2nc3ccc(C(=O)c4ccccc4)cc3[nH]2)c1` stands 10.7 µM; under `C(=C\c1ccccc1)/C=N/Nc1nc2ccccc2[nH]1`, 8.63 µM.
As for `O=C1NN=C(c2ccc(Br)cc2)CC1c1ccc(Cl)cc1` (stereo not drawn), the IC50 was 9.86 µM.
Regarding `Cn1c(=O)c(C(=O)Nc2ccccn2)c(O)c2ccccc21`, the IC50 is 15.2 µM.
For the compound `Cc1occc1C(=O)N/N=C/C(Br)=C\c1ccccc1`, the IC50 was 13.7 µM.
Under `CCCCn1c(N)c(N(CCC(C)C)C(=O)c2ccc3c(c2)OCO3)c(=O)[nH]c1=O` stands 11.1 µM; under `COc1ccc(/C=C/C(=O)Nc2ccc3c(c2)CCC3)cc1OC`, 8.81 µM; under `C[C@@]12C(=O)Nc3ccc(Cl)cc3C(=O)N1[C@H]1c3ccccc3OC[C@@H]1[C@@H]2c1ccccc1`, 3.38 µM.
Take `CC(C)n1ncc2c(C(=O)NCC(=O)Nc3ccccc3Br)cc(C3CC3)nc21`: the half-maximal inhibitory concentration (IC50) is 16 µM.
As to `Cc1ccn2cc(-c3ccc(NC(=O)c4ccco4)cc3)nc2c1`, the IC50 was 17.6 µM.
Under `Cc1ccc2occ(/C=N/NC(=O)c3ccncc3)c(=O)c2c1` stands 21.6 µM.
Under `Cc1ccc(S(=O)(=O)n2ccc(OC(=O)c3cccs3)n2)cc1` stands 8.39 µM; under `COc1cc2ccccc2cc1C(=O)Nc1ccc(C)cc1`, 12.5 µM; under `O=C(CC(=O)c1c(F)cccc1Cl)c1ccccc1O`, 15.7 µM.
On to `Cc1ccc(C(=O)Nc2nc(C(C)(C)C)cs2)s1`, for which the IC50 was 13.6 µM.
With `CCc1ccc(C2CC(=O)NC(SCC(=O)OC(C)C)=C2C#N)cc1` (stereo not drawn), the IC50 is 18.2 µM.
As to `COc1ccc(-c2cc(-c3ccccc3O)[nH]n2)cc1`, the IC50 is 9.38 µM.
